From ChEMBL document CHEMBL1151866, “Design and synthesis of novel delta opioid receptor agonists and their pharmacologies” (Bioorg Med Chem Lett, 2009)

Columns and labels:
[1] = Selectivity ratio of Ki for kappa opioid receptor in guinea pig cerebellum to Ki for delta opioid receptor in rat cerebellum membrane; assay type: cell membranes
[2] = target: Kappa-type opioid receptor (Cavia porcellus, UniProt P41144); experiment: Displacement of [3H]U-69593 from kappa opioid receptor in guinea pig cerebellum; assay type: tissue-based
[3] = target: T1, Delta-type opioid receptor (Homo sapiens, UniProt P41143); experiment: Agonist activity at human recombinant delta opioid receptor expressed in HEK293 cells by [35S]GTPgammaS binding assay; assay type: functional, cell-based
[4] = target: Delta-type opioid receptor (Rattus norvegicus, UniProt P33533); experiment: Displacement of [3H]DADLE from delta opioid receptor in rat cerebellum membrane; assay type: cell membranes
Rattus norvegicus = organism: Rattus norvegicus; experiment: Selectivity ratio of Ki for mu opioid receptor in rat cerebellum membrane to Ki for delta opioid receptor in rat cerebellum membrane; assay type: cell membranes
[5] = target: T1, Delta-type opioid receptor; experiment: Ratio of EC50 for drug to EC50 for TAN-67 against human recombinant delta opioid receptor
Mu-type opioid receptor = Mu-type opioid receptor (Rattus norvegicus, UniProt P33535); experiment: Displacement of [3H]DAMGO from mu opioid receptor in rat cerebellum membrane; assay type: cell membranes
Mus musculus = experiment: Analgesic activity against acetic acid-induced writhing in sc dosed mouse; assay type: functional
[6] = target: T1, Delta-type opioid receptor; experiment: Agonist activity at human recombinant delta opioid receptor expressed in CHO cells by [35S]GTPgammaS binding assay; assay type: functional, cell-based

T1 sequence (P41143 whole entry): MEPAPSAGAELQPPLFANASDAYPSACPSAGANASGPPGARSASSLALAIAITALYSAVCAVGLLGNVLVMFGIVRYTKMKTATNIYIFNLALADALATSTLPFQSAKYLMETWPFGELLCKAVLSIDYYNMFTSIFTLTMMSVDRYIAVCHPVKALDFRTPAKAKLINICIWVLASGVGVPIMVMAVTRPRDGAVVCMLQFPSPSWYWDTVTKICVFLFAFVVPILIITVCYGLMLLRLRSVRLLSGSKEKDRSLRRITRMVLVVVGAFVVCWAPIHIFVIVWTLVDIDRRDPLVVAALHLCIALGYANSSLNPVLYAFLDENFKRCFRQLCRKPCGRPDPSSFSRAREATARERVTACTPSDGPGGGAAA
Sequence of Delta-type opioid receptor (Rattus norvegicus, UniProt P33533) (P33533 whole entry): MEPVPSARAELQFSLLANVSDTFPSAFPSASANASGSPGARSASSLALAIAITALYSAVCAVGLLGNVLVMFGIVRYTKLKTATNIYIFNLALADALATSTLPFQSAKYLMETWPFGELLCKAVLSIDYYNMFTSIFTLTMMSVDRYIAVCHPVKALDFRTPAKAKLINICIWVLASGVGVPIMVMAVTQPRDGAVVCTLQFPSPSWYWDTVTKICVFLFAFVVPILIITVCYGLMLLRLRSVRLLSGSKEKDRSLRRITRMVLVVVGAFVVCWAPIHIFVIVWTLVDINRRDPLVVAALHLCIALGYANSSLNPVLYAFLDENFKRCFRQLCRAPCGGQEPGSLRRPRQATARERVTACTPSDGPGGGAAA
Sequence of Mu-type opioid receptor (P33535 whole entry): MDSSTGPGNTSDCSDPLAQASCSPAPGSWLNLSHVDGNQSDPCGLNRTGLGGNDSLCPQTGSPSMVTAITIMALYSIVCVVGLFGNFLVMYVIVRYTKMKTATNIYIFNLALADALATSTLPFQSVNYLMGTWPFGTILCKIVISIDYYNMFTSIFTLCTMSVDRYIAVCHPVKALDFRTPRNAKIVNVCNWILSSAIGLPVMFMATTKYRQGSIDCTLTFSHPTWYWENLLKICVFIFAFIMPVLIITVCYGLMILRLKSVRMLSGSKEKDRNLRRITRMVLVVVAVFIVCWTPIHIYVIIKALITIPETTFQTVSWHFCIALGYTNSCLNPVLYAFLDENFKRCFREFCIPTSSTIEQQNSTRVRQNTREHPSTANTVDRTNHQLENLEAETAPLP
Sequence of Kappa-type opioid receptor (P41144 whole entry): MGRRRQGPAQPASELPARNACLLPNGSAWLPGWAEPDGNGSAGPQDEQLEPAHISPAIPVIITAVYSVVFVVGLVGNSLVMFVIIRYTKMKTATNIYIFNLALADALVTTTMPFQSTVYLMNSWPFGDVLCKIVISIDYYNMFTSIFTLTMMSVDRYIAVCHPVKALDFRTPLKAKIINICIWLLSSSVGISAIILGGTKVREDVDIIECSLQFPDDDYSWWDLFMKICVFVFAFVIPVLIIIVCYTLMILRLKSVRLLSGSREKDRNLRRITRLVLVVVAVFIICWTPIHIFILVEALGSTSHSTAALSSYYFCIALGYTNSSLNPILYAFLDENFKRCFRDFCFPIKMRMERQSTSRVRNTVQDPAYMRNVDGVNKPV

Structure (SMILES) | Ratio [1] | Ki [2] [nM] | EC50 [3] [nM] | Ki [4] [nM] | Ratio (Rattus norvegicus) | Ratio EC50 [5] | Ki (Mu-type opioid receptor) [nM] | ED50 (Mus musculus) [mg/kg] | EC50 [6] [nM]
CN1CC[C@]23Cc4nc5ccccc5cc4C[C@H]2[C@H]1Cc1ccc(O)cc13 | 72.9 | 10.2 | 0.047 | 0.14 | 82.4 | 10 | 11.5 | – | –
CN1CC[C@]2(c3cccc(O)c3)Cc3nc4ccccc4cc3C[C@H]2C1 | 509 | 732 | 0.7 | 1.44 | 197 | – | 284 | 31.4 | 1.4
CC(C)CN1CC[C@]23Cc4nc5ccccc5cc4C[C@H]2[C@H]1Cc1ccc(O)cc13 | 23.2 | 4.41 | 0.06 | 0.19 | 124 | 10 | 23.6 | – | –
Oc1ccc2c(c1)[C@]13CCN(CC4CC4)[C@H](C2)[C@@H]1Cc1cc2ccccc2nc1C3 | 1.9 | 0.36 | 0.018 | 0.19 | 4.1 | 10 | 0.77 | – | –
